Earlier results as cited in patent US20110033506A1, “COMBINATION DOSAGE FORM OF LOW-DOSE MODAFINIL AND LOW-DOSE SILDENAFIL” (priority 2008, published 2011).

System: hamsters
Settings: Agostino et al, PNAS 2007

Structure (SMILES): CCCc1nn(C)c2c(=O)[nH]c(-c3cc(S(=O)(=O)N4CCN(C)CC4)ccc3OCC)nc12.O=C(O)CC(O)(CC(=O)O)C(=O)O [Sildenafil, 1-[[3-(6,7-dihydro-1-methyl-7-oxo-3-propyl-1H-pyrazolo[4,3-d]pyrimidin-5-yl)-4-ethoxyphenyl]sulfonyl]-4-methylpiperazine]
- re-establishing disrupted circadian rhythms (jet lag): effective in re-establishing disrupted circadian rhythms
